Structures can show the parent of a compound that is named as a salt. Where two headings read alike, the source gives them in different places.

Holding throughout (test): AK assay 384-well format, Prestwick library screening
One assay concerns K. pneumoniae. It is filed as cell-based, Klebsiella pneumoniae. Conditions: 50 μM final drug concentration; for fold induction at 50 µM: Klebsiella pneumoniae, 3 h.
In assay [1] the test system is S. aureus strain USA300-0114. It is filed as cell-based, Staphylococcus aureus. Conditions: 50 μM final drug concentration; for fold induction at 50 µM: Staphylococcus aureus, USA300, 3 h.
The test system of another assay is E. faecium. It is filed as cell-based, Enterococcus faecium. As to conditions: 50 μM final drug concentration; for fold induction at 50 µM: Enterococcus faecium, 3 h.
A further assay deals with E. cloacae. It is filed as cell-based, Enterobacter cloacae. Conditions: 50 μM final drug concentration; for fold induction at 50 µM: Enterobacter cloacae, 3 h.
Assay [2] deals with A. baumannii strain 98-37-09. It is filed as cell-based, Acinetobacter baumannii. Conditions: 50 μM final drug concentration; for fold induction at 50 µM: Acinetobacter baumannii, 983709, 3 h.
A further assay relates to E. coli. The format is cell-based, Escherichia coli. As to conditions: 50 μM final drug concentration; for fold induction at 50 µM: Escherichia coli, 3 h.
Another assay relates to P. aeruginosa. The format is cell-based, Pseudomonas aeruginosa. Conditions: 50 μM final drug concentration; for fold induction at 50 µM: Pseudomonas aeruginosa, 3 h.
Where [3] appears, read: planktonic K. pneumoniae, […], read-out: AK-based Prestwick Library Screening Results, K. pneumoniae (increase in extracellular AK activity).
Setting [4] is: planktonic S. aureus, […], read-out: AK-based Prestwick Library Screening Results, S. aureus (increase in extracellular AK activity).
Setting [5] is: planktonic E. faecium, […], read-out: AK-based Prestwick Library Screening Results, E. faecium (increase in extracellular AK activity).
[6] abbreviates: planktonic E. cloacae, […], read-out: AK-based Prestwick Library Screening Results, E. cloacae (increase in extracellular AK activity).
Setting [7] is: planktonic A. baumannii, […], read-out: AK-based Prestwick Library Screening Results, A. baumannii (increase in extracellular AK activity).
[8] abbreviates: planktonic E. coli, […], read-out: AK-based Prestwick Library Screening Results, E. coli (increase in extracellular AK activity).
Where [9] appears, read: planktonic P. aeruginosa, […], read-out: AK-based Prestwick Library Screening Results, P. aeruginosa (increase in extracellular AK activity).
Setting [10] is: planktonic K. pneumoniae, 384-well, cutoff for positive-scoring molecules 3-fold increase, read-out: AK-based Prestwick Library Screening Results: K. pneumoniae (increase in extracellular AK activity).
The mark [11] stands for this setting: planktonic S. aureus, 384-well, cutoff for positive-scoring molecules 3-fold increase, read-out: AK-based Prestwick Library Screening Results: S. aureus (increase in extracellular AK activity).
Where [12] appears, read: planktonic E. faecium, 384-well, cutoff for positive-scoring molecules 3-fold increase, read-out: AK-based Prestwick Library Screening Results: E. faecium (increase in extracellular AK activity).
[13] abbreviates: planktonic E. cloacae, 384-well, cutoff for positive-scoring molecules 3-fold increase, read-out: AK-based Prestwick Library Screening Results: E. cloacae (increase in extracellular AK activity).
[14] abbreviates: planktonic A. baumannii, 384-well, cutoff for positive-scoring molecules 3-fold increase, read-out: AK-based Prestwick Library Screening Results: A. baumannii (increase in extracellular AK activity).
Setting [15] is: planktonic E. coli, 384-well, cutoff for positive-scoring molecules 3-fold increase, read-out: AK-based Prestwick Library Screening Results: E. coli (increase in extracellular AK activity).
Where [16] appears, read: planktonic P. aeruginosa, 384-well, cutoff for positive-scoring molecules 3-fold increase, read-out: AK-based Prestwick Library Screening Results: P. aeruginosa (increase in extracellular AK activity).
The mark [17] stands for this setting: cutoff for positive-scoring molecules 3-fold increase, read-out: AK-based Prestwick Library Screening Results, K. pneumoniae (fold increase in extracellular AK activity).
Where [18] appears, read: cutoff for positive-scoring molecules 3-fold increase, read-out: AK-based Prestwick Library Screening Results, S. aureus (fold increase in extracellular AK activity).
[19] abbreviates: cutoff for positive-scoring molecules 3-fold increase, read-out: AK-based Prestwick Library Screening Results, E. faecium (fold increase in extracellular AK activity).
The mark [20] stands for this setting: cutoff for positive-scoring molecules 3-fold increase, read-out: AK-based Prestwick Library Screening Results, E. cloacae (fold increase in extracellular AK activity).
The mark [21] stands for this setting: cutoff for positive-scoring molecules 3-fold increase, read-out: AK-based Prestwick Library Screening Results, A. baumannii (fold increase in extracellular AK activity).
[22] abbreviates: cutoff for positive-scoring molecules 3-fold increase, read-out: AK-based Prestwick Library Screening Results, E. coli (fold increase in extracellular AK activity).
Where [23] appears, read: cutoff for positive-scoring molecules 3-fold increase, read-out: AK-based Prestwick Library Screening Results, P. aeruginosa (fold increase in extracellular AK activity).
The mark [24] stands for this setting: 384-well format, cutoff for positive-scoring molecules 3-fold increase.

As to `C[C@]12CCC(=O)C=C1CC[C@@H]1[C@@H]2C(=O)C[C@]2(C)C(=O)CC[C@@H]12` [Adrenosterone], in the assay with K. pneumoniae (planktonic, […]), the “AK-based Prestwick Library Screening Results, K. pneumoniae (fold increase in extracellular AK activity)” value is listed as 0.6. The “AK-based Prestwick Library Screening Results, S. aureus (fold increase in extracellular AK activity)” value in assay [1] (planktonic, […]) was 0.6. Also, the “AK-based Prestwick Library Screening Results, E. faecium (fold increase in extracellular AK activity)” value in the assay with E. faecium (planktonic, […]) came to 0.9. Besides, in the assay with E. cloacae (planktonic, […]), the “AK-based Prestwick Library Screening Results, E. cloacae (fold increase in extracellular AK activity)” value turned out to be 1.2. In addition, the “AK-based Prestwick Library Screening Results, A. baumannii (fold increase in extracellular AK activity)” value in assay [2] (planktonic, […]) is reported as 0.8. Moreover, the “AK-based Prestwick Library Screening Results, E. coli (fold increase in extracellular AK activity)” value in the assay on E. coli (planktonic, […]) is on record as 0.7. Further, the “AK-based Prestwick Library Screening Results, P. aeruginosa (fold increase in extracellular AK activity)” value in the assay on P. aeruginosa (planktonic, […]) is recorded as 0.6.

Take `C[C@]12CC[C@H](O)C[C@H]1CC[C@@H]1[C@@H]2CC[C@]2(C)[C@@H](C3=CC(=O)OC3)CC[C@]12O` [Digitoxigenin]: the fold induction at 50 µM with K. pneumoniae (setting [3]) turned out to be 0.7; in assay [1] (setting [4]) it was 0.6; in the assay with E. faecium (setting [5]) it was 0.9; in the assay with E. cloacae (setting [6]), 1.2; in assay [2] (setting [7]) it was 0.8; with E. coli (setting [8]) it was 0.9. The fold induction at 50 µM in the assay with P. aeruginosa (setting [9]) was found to be 0.8.

Turning to `O=C1C(CC[S+]([O-])c2ccccc2)C(=O)N(c2ccccc2)N1c1ccccc1` (stereo not shown) [Sulfinpyrazone], the fold induction at 50 µM was found to be 1 with K. pneumoniae (setting [10]); 3.5 in assay [1] (setting [11]); 1.1 in the assay with E. faecium (setting [12]); 1.2 in the assay with E. cloacae (setting [13]); 1.2 in assay [2] (setting [14]); 1.3 in the assay on E. coli (setting [15]). The fold induction at 50 µM in the assay on P. aeruginosa (setting [16]) was determined as 1.

Take `CN1[C@@H]2C[C@@H](OC(=O)[C@H](CO)c3ccccc3)C[C@H]1[C@@H]1O[C@@H]12` [Scopolamine hydrochloride]: the fold induction at 50 µM in the assay with K. pneumoniae ([…], read-out: AK-based Prestwick Library Screening Results, K. pneumoniae (fold increase in extracellular AK activity)) was determined as 1.1; in assay [1] ([…], read-out: AK-based Prestwick Library Screening Results, S. aureus (fold increase in extracellular AK activity)), 1.2; in the assay with E. faecium ([…], read-out: AK-based Prestwick Library Screening Results, E. faecium (fold increase in extracellular AK activity)) it was 1; in the assay on E. cloacae ([…], read-out: AK-based Prestwick Library Screening Results, E. cloacae (fold increase in extracellular AK activity)) it was 1.5; in assay [2] ([…], read-out: AK-based Prestwick Library Screening Results, A. baumannii (fold increase in extracellular AK activity)), 1.2; in the assay with E. coli ([…], read-out: AK-based Prestwick Library Screening Results, E. coli (fold increase in extracellular AK activity)), 1.2. The fold induction at 50 µM in the assay with P. aeruginosa ([…], read-out: AK-based Prestwick Library Screening Results, P. aeruginosa (fold increase in extracellular AK activity)) worked out at 1.1.

In the case of `CN(C)CCCC1(c2ccc(F)cc2)OCc2cc(C#N)ccc21` (stereo not shown) [Citalopram Hydrobromide], the fold induction at 50 µM with K. pneumoniae (setting [17]) was 0.9; in assay [1] (setting [18]), 1; in the assay on E. faecium (setting [19]), 1; in the assay on E. cloacae (setting [20]), 1.5; in assay [2] (setting [21]) it was 0.9; with E. coli (setting [22]), 1. For the same compound, the fold induction at 50 µM with P. aeruginosa (setting [23]) was 1.2.

Regarding `COc1ccc2c(c1OC)C(=O)O[C@@H]2[C@H]1c2c(cc3c(c2OC)OCO3)CCN1C` [Noscapine], the fold induction at 50 µM in the assay on K. pneumoniae (setting [10]) came to 0.5; in assay [1] (setting [11]) it was 0.5; with E. faecium (setting [12]), 0.9; in the assay on E. cloacae (setting [13]) it was 0.6; in assay [2] (setting [14]), 0.6; in the assay on E. coli (setting [15]) it was 0.6. In addition, the fold induction at 50 µM in the assay on P. aeruginosa (setting [16]) came out at 0.5.

In the case of `CC(CNC1CCCCC1)OC(=O)c1ccccc1` (stereo not shown) [Hexylcaine hydrochloride], the fold induction at 50 µM is 1 in the assay with K. pneumoniae (setting [17]); 1.3 in assay [1] (setting [18]); 1 in the assay on E. faecium (setting [19]); 1.4 in the assay on E. cloacae (setting [20]); 1.3 in assay [2] (setting [21]); 1.2 in the assay on E. coli (setting [22]). The fold induction at 50 µM in the assay on P. aeruginosa (setting [23]) was determined as 1.1.

Take `CC(C)(CO)[C@@H](O)C(=O)NCCCO` [Panthenol (D)]: the “AK-based Prestwick Library Screening Results, K. pneumoniae (increase in extracellular AK activity)” value with K. pneumoniae (setting [24]) was 0.7. Further, the “AK-based Prestwick Library Screening Results, S. aureus (increase in extracellular AK activity)” value in assay [1] (setting [24]) is reported as 0.6. The “AK-based Prestwick Library Screening Results, E. faecium (increase in extracellular AK activity)” value with E. faecium (setting [24]) is on record as 0.8. The “AK-based Prestwick Library Screening Results, E. cloacae (increase in extracellular AK activity)” value with E. cloacae (setting [24]) was found to be 1.0. Besides, the “AK-based Prestwick Library Screening Results, A. baumannii (increase in extracellular AK activity)” value in assay [2] (setting [24]) is listed as 0.8. Besides, the “AK-based Prestwick Library Screening Results, E. coli (increase in extracellular AK activity)” value in the assay on E. coli (setting [24]) worked out at 0.9. Also, the “AK-based Prestwick Library Screening Results, P. aeruginosa (increase in extracellular AK activity)” value in the assay with P. aeruginosa (setting [24]) came out at 0.7.

In the case of `CN1C(=O)CCS(=O)(=O)C1c1ccc(Cl)cc1` (stereo not shown) [Chlormezanone], the fold induction at 50 µM is 0.6 in the assay on K. pneumoniae (setting [3]); 0.7 in assay [1] (setting [4]); 1 in the assay on E. faecium (setting [5]); 0.7 in the assay on E. cloacae (setting [6]); 0.7 in assay [2] (setting [7]); 0.7 in the assay on E. coli (setting [8]). Also, the fold induction at 50 µM in the assay with P. aeruginosa (setting [9]) came to 0.6.

For `CC1=C(C(=O)O)N2C(=O)[C@@H](NC(=O)[C@H](N)c3ccc(O)cc3)[C@H]2SC1` [Cefadroxil], the fold induction at 50 µM in the assay with K. pneumoniae (planktonic K. pneumoniae, cutoff for positive-scoring molecules 3-fold increase, read-out: AK-based Prestwick Library Screening Results, K. pneumoniae (increase in extracellular AK activity)) came out at 0.8; in assay [1] (planktonic S. aureus, cutoff for positive-scoring molecules 3-fold increase, read-out: AK-based Prestwick Library Screening Results, S. aureus (increase in extracellular AK activity)) it was 0.5; in the assay on E. faecium (planktonic E. faecium, cutoff for positive-scoring molecules 3-fold increase, read-out: AK-based Prestwick Library Screening Results, E. faecium (increase in extracellular AK activity)), 0.8; in the assay with E. cloacae (planktonic E. cloacae, cutoff for positive-scoring molecules 3-fold increase, read-out: AK-based Prestwick Library Screening Results, E. cloacae (increase in extracellular AK activity)), 1.2; in assay [2] (planktonic A. baumannii, cutoff for positive-scoring molecules 3-fold increase, read-out: AK-based Prestwick Library Screening Results, A. baumannii (increase in extracellular AK activity)), 0.9; in the assay on E. coli (planktonic E. coli, cutoff for positive-scoring molecules 3-fold increase, read-out: AK-based Prestwick Library Screening Results, E. coli (increase in extracellular AK activity)) it was 0.9. In the assay with P. aeruginosa (planktonic P. aeruginosa, cutoff for positive-scoring molecules 3-fold increase, read-out: AK-based Prestwick Library Screening Results, P. aeruginosa (increase in extracellular AK activity)), the fold induction at 50 µM came out at 0.8.

(Values after patent publication US10004701B2, “Methods and compositions for treating infection” (UNIVERSITY OF ROCHESTER, priority 2012, dated 2018).)
